One experiment concerns the target SARS-CoV-2 3CLPro (Severe acute respiratory syndrome coronavirus 2, UniProt P0DTD1). Briefly: Native-PAGE binding with SARS-CoV-2 viral 3CLPro (Example 8). The settings on record: 62.5-1000 μM samples mixed with 40 μM 3CLPro, 4° C., 3 hours.
A further experiment addresses 3CLPro (Severe acute respiratory syndrome coronavirus 2, UniProt P0DTD1). The settings on record: cited from earlier work; for IC50: read-out: IC50 (inhibition of 3CLPro), summary of Table 3.
For a further experiment, the system named is SARS-CoV-2. As to the kind of experiment: SARS-CoV-2 virucidal assay in Vero E6 cells (qPCR of viral genome). The format is cell-based. The settings on record: Vero E6, MOI=0.01, 24 h. For orientation: In qPCR the cycle at which signal appears reflects the starting amount.
Another experiment has as its target 2019-nCoV 3CLPro (Severe acute respiratory syndrome coronavirus 2, UniProt P0DTD1). As to the kind of experiment: 2019-nCoV 3CLPro proteolytic activity, fluorogenic substrate, samples at 3 μM (Example 4). The format is biochemical. The settings on record: estimated from single concentration 3 μM; read-out: approximately half maximal inhibition (IC50) at the concentration.

“And” between values parts separate entries of the source, which are not always exact repeats. Identical values can stand only once.

In the case of `O=C(O)c1cc(O)c(O)c(O)c1` [GA, gallic acid], the “binding to SARS-CoV-2 3CLPro by native-PAGE (mobility shift)” value (from here on “binding … (mobility shift)”) at SARS-CoV-2 3CLPro was “no significant binding”. What is called IC50 is the concentration at which inhibition is half-maximal. For `Cc1cccc(C)c1OCC(=O)N[C@@H](Cc1ccccc1)[C@@H](O)C[C@H](Cc1ccccc1)NC(=O)[C@H](C(C)C)N1CCCNC1=O` [Lopinavir], the “IC50 of the 3CLPro (result in words)” value at 3CLPro (20 μM, Ma et al., 2020) is on record as 20 μM, failed to inhibit. The half-inhibitory concentration (IC50) on 3CLPro is > 100 µM. Regarding `Cc1c(O)cccc1C(=O)N[C@@H](CSc1ccccc1)[C@H](O)CN1C[C@H]2CCCC[C@H]2C[C@H]1C(=O)NC(C)(C)C` [Nelfinavir], at 3CLPro, the IC50 is > 100 µM. The EC99 is the concentration at which the effect reaches the 99% level. In the case of `CCC(CC)COC(=O)[C@H](C)N[P@](=O)(OC[C@H]1O[C@@](C#N)(c2ccc3c(N)ncnn23)[C@H](O)[C@@H]1O)Oc1ccccc1` [Remdesivir], the EC99 in the experiment with SARS-CoV-2 (cell layer) is 15 µM and 15.000 µM; with SARS-CoV-2 (supernatant) it was 15 µM and 15.000 µM.

Take `O=C(OC[C@H]1O[C@H](OC(=O)c2cc(O)c(O)c(O)c2)[C@H](OC(=O)c2cc(O)c(O)c(O)c2)[C@@H](OC(=O)c2cc(O)c(O)c(O)c2)[C@@H]1OC(=O)c1cc(O)c(O)c(O)c1)c1cc(O)c(O)c(O)c1` [Sample 1]: the potency estimated from few doses at 2019-nCoV 3CLPro was ~3 µM. In the case of `O=C(OC[C@H]1O[C@@H](OC(=O)c2cc(O)c(O)c(O)c2)[C@H](OC(=O)c2cc(O)c(O)c(O)c2)[C@@H](OC(=O)c2cc(O)c(O)c(O)c2)[C@@H]1OC(=O)c1cc(O)c(O)c(O)c1)c1cc(O)c(O)c(O)c1` [Sample 2, (2S,3R,4S,5R,6R)-3,4,5-tris(3,4,5-trihydroxybenzoyloxy)-6-((3,4,5-trihydroxybenzoyloxy)methyl)oxan-2-yl 3,4,5-trihydroxybenzoate], on 2019-nCoV 3CLPro, the potency estimated from few doses was ~3 µM. `O=C(OC[C@H]1O[C@@H](OC(=O)c2cc(O)c(O)c(OC(=O)c3cc(O)c(O)c(O)c3)c2)[C@H](OC(=O)c2cc(O)c(O)c(OC(=O)c3cc(O)c(O)c(O)c3)c2)[C@@H](OC(=O)c2cc(O)c(O)c(OC(=O)c3cc(O)c(O)c(O)c3)c2)[C@@H]1OC(=O)c1cc(O)c(O)c(OC(=O)c2cc(O)c(O)c(O)c2)c1)c1cc(O)c(O)c(OC(=O)c2cc(O)c(O)c(O)c2)c1` [Sample 4, (2S,3R,4S,5R,6R)-3,4,5-tris(3,4-dihydroxy-5-(3,4,5-trihydroxybenzoyloxy)benzoyloxy)-6-((3,4-dihydroxy-5-(3,4,5-trihydroxybenzoyloxy)benzoyloxy)methyl)oxan-2-yl 3,4-dihydroxy-5-(3,4,5-trihydroxybenzoyloxy)benzoate]: on SARS-CoV-2 3CLPro, the “binding … (mobility shift)” value is recorded as “significant binding”. For `O=C(OC[C@H]1O[C@@H](OC(=O)c2cc(O)c(O)c(OC(=O)c3cc(O)c(O)c(OC(=O)c4cc(O)c(O)c(O)c4)c3)c2)[C@H](OC(=O)c2cc(O)c(O)c(OC(=O)c3cc(O)c(O)c(OC(=O)c4cc(O)c(O)c(O)c4)c3)c2)[C@@H](OC(=O)c2cc(O)c(O)c(OC(=O)c3cc(O)c(O)c(OC(=O)c4cc(O)c(O)c(O)c4)c3)c2)[C@@H]1OC(=O)c1cc(O)c(O)c(OC(=O)c2cc(O)c(O)c(OC(=O)c3cc(O)c(O)c(O)c3)c2)c1)c1cc(O)c(O)c(OC(=O)c2cc(O)c(O)c(OC(=O)c3cc(O)c(O)c(O)c3)c2)c1` [Sample 6, (2S,3R,4S,5R,6R)-6-(((3-((3,4-dihydroxy-5-((3,4,5-trihydroxybenzoyl)oxy)benzoyl)oxy)-4,5-dihydroxybenzoyl)oxy)methyl)tetrahydro-2H-pyran-2,3,4,5-tetrayl tetrakis(3-((3,4-dihydroxy-5-((3,4,5-trihydroxybenzoyl)oxy)benzoyl)oxy)-4,5-dihydroxybenzoate)], the “binding … (mobility shift)” value on SARS-CoV-2 3CLPro is “significant binding”. For `CC(C)(C)NC(=O)[C@@H]1C[C@@H]2CCCC[C@@H]2CN1C[C@@H](O)[C@H](Cc1ccccc1)NC(=O)[C@H](CC(N)=O)NC(=O)c1ccc2ccccc2n1` [Saquinavir], the half-maximal inhibitory concentration (IC50) on 3CLPro is > 100 µM. Regarding `CCC[C@@]1(CCc2ccccc2)CC(O)=C([C@H](CC)c2cccc(NS(=O)(=O)c3ccc(C(F)(F)F)cn3)c2)C(=O)O1` [Tipranavir], the IC50 on 3CLPro is > 100 µM.

These data come from patent US11779561B2, “Compounds and pharmaceutical uses thereof” (priority 2020, dated 2023).
